Among the data in patent US20250032625A1, “HETEROBIFUNCTIONAL MOLECULES AS TEAD INHIBITORS” (Merck Patent GmbH, priority 2021, published 2025) are DC50 values, retold here.

The target of one assay is TEAD1 in NCI-H226 cells (Homo sapiens (Human), UniProt P28347). The assay can be described thus: TEAD degradation in NCI-H226 cell line (immunofluorescence). The format is cell-based. The conditions noted are these: 24 hours, ranges, read-out: DC50 NCI-H226. As for the experimental part:
(§1) Degradation of TEAD isoform TEAD1 by exemplary compounds which has been determined at different time points in two different cell lines, SK-HEP1 and NCI-H226: For the assay, SK-HEP1 (ATCC HTB-52) and NCI-H226 (ATCC CRL-5826) cells were treated in duplicates with the test compounds in a 10-point dose, 1:3 dilution steps, with the top concentration starting at 30 uM (final concentration in assay). After either 16 or 24 hour incubation at 37° C., 95% rH, and 5% CO2, the cells were fixed with 4% PFA and TEAD1 levels were probed using immunofluorescence. The primary antibody used was Anti-TEF1 (BD, 610293) and the secondary antibody used was Alexa Fluor® 488 Goat Anti-Mouse IgG (H+L) (Molecular Probes, A-11001). Finally, the cell nuclei were co-stained by Hoechst 33258 (Invitrogen, H-3569) and imaged using a high content imager. The amount of TEAD degradation was determined by quantifying the fluorescence intensity levels of Anti-TEF1 in each individual cell per well. DC50 was calculated using curve fitting software Genedata Screener. Cell media: The SK-HEP1 cells were cultured in the following media: MEM, +10% FCS, +1× GlutaMAX, +100 μM NEAA, +10 mM HEPES, +0.5% Pen/Strep. The NCI-H226 cells were cultured in the following media: RPMI 1640, +10% FBS, +1× GlutaMAX, +10 mM HEPES, +0.5% Pen/Strep.

For another assay, the target named is TEAD1 in SK-HEP1 cells (Homo sapiens (Human), UniProt P28347). Nature of the assay: TEAD degradation in SK-HEP1 cell line (immunofluorescence). The format is cell-based. The conditions noted are these: 24 hours, ranges, read-out: DC50 SK-HEP1. The protocol:
as §1

A value given as a limit tells only on which side of the number the result lay.

Chain of TEAD1 in NCI-H226 cells (P28347 whole entry, canonical isoform): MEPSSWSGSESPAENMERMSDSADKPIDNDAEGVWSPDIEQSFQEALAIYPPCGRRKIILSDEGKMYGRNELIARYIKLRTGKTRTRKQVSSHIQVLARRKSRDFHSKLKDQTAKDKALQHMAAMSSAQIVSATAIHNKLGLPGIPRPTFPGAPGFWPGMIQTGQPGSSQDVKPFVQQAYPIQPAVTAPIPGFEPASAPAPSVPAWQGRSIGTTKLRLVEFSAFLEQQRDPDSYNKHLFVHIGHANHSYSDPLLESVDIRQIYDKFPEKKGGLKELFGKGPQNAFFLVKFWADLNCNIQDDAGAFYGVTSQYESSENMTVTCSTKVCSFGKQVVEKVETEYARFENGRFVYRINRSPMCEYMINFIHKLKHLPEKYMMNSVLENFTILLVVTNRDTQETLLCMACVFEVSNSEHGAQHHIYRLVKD
Chain of TEAD1 in SK-HEP1 cells (P28347 whole entry): as the sequence (P28347 whole entry, canonical isoform) above

Regarding `Cc1ncsc1-c1ccc([C@H](C)NC(=O)[C@@H]2C[C@@H](O)CN2C(=O)[C@@H](NC(=O)CCCCCc2cnnn2CCCCCCCNC(=O)c2ccc3c(c2)c2cn(C)nc2n3-c2ccc(C(F)(F)F)cc2)C(C)(C)C)cc1` [Compound 38, (2S,4R)-1-[(2S)-3,3-dimethyl-2-(6-{1-[7-({2-methyl-8-[4-(trifluoromethyl)-phenyl]-2H,8H-pyrazolo[3,4-b]indol-5-yl}formamido)heptyl]-1H-1,2,3-triazol-5-yl}hexanamido)butanoyl]-4-hydroxy-N-[(1S)-1-[4-(4-methyl-1,3-thiazol-5-yl)phenyl]ethyl]pyrrolidine-2-carboxamide], the DC50 at TEAD1 in NCI-H226 cells and at TEAD1 in SK-HEP1 cells was 0.1 to 1 µM in each case.

Consider `Cn1cc2c3cc(C(=O)NCCOCCOCCOCCOCCNc4ccc5c(c4)C(=O)N(C4CCC(=O)NC4=O)C5=O)ccc3n(-c3ccc(C(F)(F)F)cc3)c2n1` (centres unmarked) [Compound 42, N-(14-{[2-(2,6-dioxopiperidin-3-yl)-1,3-dioxo-2,3-dihydro-1H-isoindol-5-yl]amino}-3,6,9,12-tetraoxatetradecan-1-yl)-2-methyl-8-[4-(trifluoro-methyl)phenyl]-2H,8H-pyrazolo[3,4-b]indole-5-carboxamide], for which the 50% degradation concentration (DC50) on TEAD1 in NCI-H226 cells was 0.1 to 1 µM; at TEAD1 in SK-HEP1 cells, below 0.1 µM.

For the compound `Cn1cc2c3cc(C(=O)NCCOCCOCCOCCOCCNc4cccc5c4CN(C4CCC(=O)NC4=O)C5=O)ccc3n(-c3ccc(C(F)(F)F)cc3)c2n1` (centres unmarked) [Compound 43, N-(14-{[2-(2,6-dioxopiperidin-3-yl)-1-oxo-2,3-dihydro-1H-isoindol-4-yl]amino}-3,6,9,12-tetraoxatetradecan-1-yl)-2-methyl-8-[4-(trifluoromethyl)phenyl]-2H,8H-pyrazolo[3,4-b]indole-5-carboxamide], the DC50 lay within 0.1 to 1 µM on TEAD1 in NCI-H226 cells and 9 to 30 µM on TEAD1 in SK-HEP1 cells.

Turning to `Cn1nc2c3cc(C(=O)NCCOCCOCCOCCOCCNc4cccc5c4C(=O)N(C4CCC(=O)NC4=O)C5=O)ccc3n(-c3ccc(C(F)(F)F)cc3)c2n1` (centres unmarked) [Compound 45, N-(14-{[2-(2,6-dioxopiperidin-3-yl)-1,3-dioxo-2,3-dihydro-1H-isoindol-4-yl]amino}-3,6,9,12-tetraoxatetradecan-1-yl)-2-methyl-4-[4-(trifluoromethyl)phenyl]-2H,4H-[1,2,3]triazolo[4,5-b]indole-7-carboxamide], the DC50 was below 0.1 µM at TEAD1 in NCI-H226 cells and 0.1 to 1 µM on TEAD1 in SK-HEP1 cells.

For `Cc1ccc2c(c1)c1cc(C(=O)NCCOCCOCCOCCOCCNc3cccc4c3C(=O)N(C3CCC(=O)NC3=O)C4=O)ccc1n2-c1ccc(C(F)(F)F)cc1` (centres unmarked) [Compound 46, N-(14-{[2-(2,6-dioxopiperidin-3-yl)-1,3-dioxo-2,3-dihydro-1H-isoindol-4-yl]amino}-3,6,9,12-tetraoxatetradecan-1-yl)-6-methyl-9-[4-(trifluoro-methyl)phenyl]-9H-carbazole-3-carboxamide], the DC50 at TEAD1 in NCI-H226 cells and at TEAD1 in SK-HEP1 cells was 0.1 to 1 µM throughout.

Consider `Cn1cc2c3cc(C(=O)NCCOCCOCCOCCOCCOCCNc4cccc5c4C(=O)N(C4CCC(=O)NC4=O)C5=O)ccc3n(-c3ccc(C(F)(F)F)cc3)c2n1` (centres unmarked) [Compound 47, N-(17-{[2-(2,6-dioxopiperidin-3-yl)-1,3-dioxo-2,3-dihydro-1H-isoindol-4-yl]amino}-3,6,9,12,15-pentaoxaheptadecan-1-yl)-2-methyl-8-[4-(trifluoro-methyl)phenyl]-2H,8H-pyrazolo[3,4-b]indole-5-carboxamide], for which the DC50 on TEAD1 in NCI-H226 cells and on TEAD1 in SK-HEP1 cells was below 0.1 µM throughout.

For the compound `Cn1cc2c3cc(C(=O)NCCOCCOCCOCCNc4cccc5c4C(=O)N(C4CCC(=O)NC4=O)C5=O)ccc3n(-c3ccc(C(F)(F)F)cc3)c2n1` (centres unmarked) [Compound 50, N-(2-{2-[2-(2-{[2-(2,6-dioxopiperidin-3-yl)-1,3-dioxo-2,3-dihydro-1H-iso-indol-4-yl]amino}ethoxy)ethoxy]ethoxy}ethyl)-2-methyl-8-[4-(trifluoro-methyl)phenyl]-2H,8H-pyrazolo[3,4-b]indole-5-carboxamide], the DC50 was below 0.1 µM on TEAD1 in NCI-H226 cells and 9 to 30 µM on TEAD1 in SK-HEP1 cells.

Take `Cc1ncsc1-c1ccc(CNC(=O)[C@@H]2C[C@@H](O)CN2C(=O)[C@@H](NC(=O)COCCOCCOCCNC(=O)c2ccc3c(c2)c2cn(C)nc2n3-c2ccc(C(F)(F)F)cc2)C(C)(C)C)cc1` [Compound 52]: the DC50 on TEAD1 in NCI-H226 cells and at TEAD1 in SK-HEP1 cells was 0.1 to 1 µM throughout.

As to `Cc1ncsc1-c1ccc(CNC(=O)[C@@H]2C[C@@H](O)CN2C(=O)[C@@H](NC(=O)CCCCCC(=O)N(C)CCOCCOCCNC(=O)c2ccc3c(c2)c2cn(C)nc2n3-c2ccc(C(F)(F)F)cc2)C(C)(C)C)cc1` [Compound 53, N-[(2S)-1-[(2S,4R)-4-hydroxy-2-({[4-(4-methyl-1,3-thiazol-5-yl)phenyl]-methyl}carbamoyl)pyrrolidin-1-yl]-3,3-dimethyl-1-oxobutan-2-yl]-N′-methyl-N′-(2-{2-[2-({2-methyl-8-[4-(trifluoromethyl)phenyl]-2H,8H-pyrazolo[3,4-b]indol-5-yl}formamido)ethoxy]ethoxy}ethyl) heptanediamide], the DC50 on TEAD1 in NCI-H226 cells and at TEAD1 in SK-HEP1 cells was 0.1 to 1 µM throughout.

For the compound `Cc1ncsc1-c1ccc(CNC(=O)[C@@H]2C[C@@H](O)CN2C(=O)[C@@H](NC(=O)CCCCCC(=O)NCCOCCOCCNC(=O)c2ccc3c(c2)c2nn(C)nc2n3-c2ccc(C(F)(F)F)cn2)C(C)(C)C)cc1` [Compound 55, N-[(2S)-1-[(2S,4R)-4-hydroxy-2-({[4-(4-methyl-1,3-thiazol-5-yl)phenyl]methyl}carbamoyl)pyrrolidin-1-yl]-3,3-dimethyl-1-oxobutan-2-yl]-N′-(2-{2-[2-({2-methyl-4-[5-(trifluoromethyl)pyridin-2-yl]-2H,4H-[1,2,3]triazolo[4,5-b]indol-7-yl}formamido)ethoxy]ethoxy}ethyl)-heptanediamide], the DC50 on TEAD1 in NCI-H226 cells and at TEAD1 in SK-HEP1 cells was 0.1 to 1 µM each time.

Turning to `Cc1ncsc1-c1ccc(CNC(=O)[C@@H]2C[C@@H](O)CN2C(=O)[C@@H](NC(=O)CCCCCCCCCOCCOCCNC(=O)c2ccc3c(c2)c2cn(C)nc2n3-c2ccc(C(F)(F)F)cc2)C(C)(C)C)cc1` [Compound 56], the DC50 on TEAD1 in NCI-H226 cells and at TEAD1 in SK-HEP1 cells was 0.1 to 1 µM throughout.

Take `Cc1ncsc1-c1ccc(CNC(=O)[C@@H]2C[C@@H](O)CN2C(=O)[C@@H](NC(=O)CCCOCCOCCOCCOCCNC(=O)c2ccc3c(c2)c2cn(C)nc2n3-c2ccc(C(F)(F)F)cc2)C(C)(C)C)cc1` [Compound 57, [(2S)-3,3-dimethyl-2-[1-({2-methyl-8-[4-(trifluoromethyl)phenyl]-2H,8H-pyrazolo[3,4-b]indol-5-yl}formamido)-3,6,9,12-tetraoxahexadecan-16-amido]butanoyl]-4-hydroxy-N-{[4-(4-methyl-1,3-thiazol-5-yl)phenyl]-methyl}pyrrolidine-2-carboxamide]: the DC50 at TEAD1 in NCI-H226 cells and on TEAD1 in SK-HEP1 cells was 1 to 3 µM throughout.

Consider `Cc1ncsc1-c1ccc(CNC(=O)[C@@H]2C[C@@H](O)CN2C(=O)[C@@H](NC(=O)CCCCCCOCCOCCOCCNC(=O)c2ccc3c(c2)c2cn(C)nc2n3-c2ccc(C(F)(F)F)cc2)C(C)(C)C)cc1` [Compound 60, (2S,4R)-1-[(2S)-3,3-dimethyl-2-[7-(2-{2-[2-({2-methyl-8-[4-(trifluoro-methyl)phenyl]-2H,8H-pyrazolo[3,4-b]indol-5-yl}formamido)ethoxy]-ethoxy}ethoxy)heptanamido]butanoyl]-4-hydroxy-N-{[4-(4-methyl-1,3-thiazol-5-yl)phenyl]methyl}pyrrolidine-2-carboxamide], for which the DC50 on TEAD1 in NCI-H226 cells and at TEAD1 in SK-HEP1 cells was 0.1 to 1 µM each time.
